Experimental data reported in patent US7262204B2, “Modulation of CCR4 function” (Amgen Inc., priority 2000, dated 2007).

biological target: T1, CCR4 (Homo sapiens, UniProt P51679); experiment: CCR4 binding assay (inhibition of 125I-TARC binding to cells expressing CCR4); conditions: CCR4 antagonist activity
T1 construct: host or cells: CEM cells
T1 sequence (P51679 1-360): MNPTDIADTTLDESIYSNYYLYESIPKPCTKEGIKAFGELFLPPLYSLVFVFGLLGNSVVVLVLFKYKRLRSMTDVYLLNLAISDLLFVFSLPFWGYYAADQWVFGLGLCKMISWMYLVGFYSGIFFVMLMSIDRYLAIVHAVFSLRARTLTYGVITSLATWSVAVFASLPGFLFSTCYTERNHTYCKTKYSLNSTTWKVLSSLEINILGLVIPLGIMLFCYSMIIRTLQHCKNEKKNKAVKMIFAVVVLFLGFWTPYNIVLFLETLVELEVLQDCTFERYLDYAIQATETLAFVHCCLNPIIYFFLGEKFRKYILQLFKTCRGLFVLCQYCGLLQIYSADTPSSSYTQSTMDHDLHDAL
Description: This example illustrates a CCR4 binding assay that can be used for evaluating the compounds of the present invention.
Detection of Radiolabelled TARC and/or MDC Binding to CCR4
^125I-labelled TARC and MDC are available from commercial sources (e.g., Amersham-Pharmacia or Perkin Elmer Life Sciences). All buffers and materials are available from commercial sources (e.g., Gibco BRL, Sigma). To measure binding of ^125I-TARC or ^125I-MDC to cells expressing CCR4 (e.g., CEM cells, available from the ATCC), the ^125I-TARC or ^125I-MDC is diluted to a concentration of approximately 200 pM in a buffered saline solution (e.g., RPMI supplemented with 0.5% bovine serum albumin), and added to an equal volume of a suspension of cells (e.g., CEM cells at 5×10^6 cells/mL). The resulting mixture is incubated for a period of time (e.g., 2 hours). The unbound ^125I-TARC or ^125I-MDC is separated from the cells by filtration, e.g., by passage through GF/B filter plate (Packard Biosciences) pre-treated with 0.3% polyethyleneimine (Sigma), using a Packard Filtermate 96 (Packard Biosciences). The amount of ^125I-TARC or ^125I-MDC retained with the cells on the filterplate is measured by adding a small amount of scintillation fluid (e.g., 50 μL of Microscint-20, obtained from Packard Biosciences), and reading scintillation on appropriate detection equipment, e.g., a Packard TopCount 383 (Packard Biosciences).
Non-specific binding of ^125I-TARC or ^125I-MDC can be estimated by measuring the amount of ^125I-TARC or ^125I-MDC retained with the cells on the filterplate when the assay is performed in the presence of a large excess of unlabelled TARC or MDC.
Inhibition of ^125I-TARC or ^125I-MDC binding to CCR4 is defined as a decrease in the retention of ^125I-TARC or ^125I-MDC to the cells on the filterplate.
The assay described above varies only moderately from standardly used procedures, e.g., Imai et al. (1997) J. Biol. Chem. 272:15036-15042, Imai et al. (1998) J. Biol. Chem. 273:1764-1768.

IC50 [nM] | Structure (SMILES)
> 1000 | CC(C)CN(Cc1csc(Nc2cccc3ccccc23)n1)CC(C)C [Compound 15]
> 1000 | CC(C)CN(CC(C)C)C(C)c1csc(Nc2cccc3ccccc23)n1 (stereo not shown) [Compound 18]
> 1000 | c1ccc(CN2CCc3sc(Nc4cccc5ccccc45)nc3C2)cc1 [Compound 20]

Structure (SMILES) | IC50 [nM]
Clc1ccc2nc(Nc3cccc4ccccc34)sc2c1 [Compound 19] | < 1000
